From ChEMBL document CHEMBL6109061, “Discovery of an Ultralong-acting Nondepolarizing Neuromuscular Blocker That Displays Short Onset Time and On-Demand Rapid Reversal by a Biocompatible Antagonist” (J Med Chem, 2025)

Legend:
[1] = system: Rattus norvegicus; assay: Reversal of IMC-14-induced neuromuscular block in Sprague-Dawley rat model assessed as recovery time at 10 mg/kg, iv measured at 5 hrs; assay type: functional
[2] = system: Rattus norvegicus; assay: Reversal of IMC-14-induced neuromuscular block in Sprague-Dawley rat model assessed as recovery time at 10 mg/kg, iv measured at 30 mins; assay type: functional; conditions: 0.5 h
[3] = system: Rattus norvegicus; assay: Reversal of IMC-14-induced neuromuscular block in Sprague-Dawley rat model assessed as recovery time at 10 mg/kg, iv measured at 30 sec; assay type: functional; conditions: 0.5 min
[4] = system: Rattus norvegicus; assay: Reversal of IMC-14-induced neuromuscular block in Sprague-Dawley rat model assessed as recovery time at 20 mg/kg, iv measured at 19 sec; assay type: functional; conditions: 19 s
[5] = Toxicity in Sprague-Dawley rat at 0.2 mg/kg, iv measured for 5 hrs; assay type: organism-based; conditions: in vivo
[6] = system: Rattus norvegicus; assay: Neuromuscular block activity in propofol-induced anesthetized Sprague-Dawley rat model assessed as inhibition of twitch by measuring twitch intensity of quadriceps muscle at 0.032 mg/kg, iv administered as bolus dose by TOF watch monitor analysis relative to control; assay type: functional
[7] = system: Rattus norvegicus; assay: Neuromuscular block activity in propofol-induced anesthetized Sprague-Dawley rat model assessed as time duration of 0 to 25 percent recovery indices at 10 mg/kg, iv; assay type: functional
[8] = Mutagenicity in Salmonella typhimurium TA97a by AMES test; assay type: toxicity; conditions: salmonella enterica subsp. enterica serovar typhimurium
[9] = Hemolytic activity in rat RBC assessed as hemolysis rate at 2048 microg/ml relative to control; assay type: toxicity, cell-based, Erythrocyte; conditions: red blood cells, at 2048 µg/mL, read-out: Activity
[10] = Toxicity in Sprague-Dawley rat assessed as liver damage at 3 mg/kg, iv measured after 5 hrs by H and E staining based analysis; assay type: organism-based; conditions: in vivo
[11] = Toxicity in Sprague-Dawley rat assessed as spleen damage at 3 mg/kg, iv measured after 5 hrs by H and E staining based analysis; assay type: organism-based; conditions: in vivo
[12] = Solubility of compound in water; assay type: physicochemical
[13] = Mutagenicity in Salmonella typhimurium TA98 by AMES test; assay type: toxicity; conditions: salmonella enterica subsp. enterica serovar typhimurium
[14] = system: Rattus norvegicus; assay: Neuromuscular block activity in propofol-induced anesthetized Sprague-Dawley rat model assessed as inhibition of twitch by measuring twitch intensity of quadriceps muscle at 1.5 mg/kg, iv administered as bolus dose by TOF watch monitor analysis relative to control; assay type: functional
[15] = system: Rattus norvegicus; assay: Neuromuscular block activity in propofol-induced anesthetized Sprague-Dawley rat model assessed as time duration of 0 to 25 percent recovery indices at 0.04 mg/kg, iv; assay type: functional
[16] = system: Rattus norvegicus; assay: Neuromuscular block activity in propofol-induced anesthetized Sprague-Dawley rat model assessed as time duration of 0 to 25 percent recovery indices at 0.032 mg/kg, iv; assay type: functional
[17] = Toxicity in Sprague-Dawley rat assessed as lung damage at 3 mg/kg, iv measured after 5 hrs by H and E staining based analysis; assay type: organism-based; conditions: in vivo
[18] = system: Rattus norvegicus; assay: Neuromuscular block activity in propofol-induced anesthetized Sprague-Dawley rat model assessed as inhibition of twitch by measuring twitch intensity of quadriceps muscle at 0.04 mg/kg, iv administered as bolus dose by TOF watch monitor analysis relative to control; assay type: functional
[19] = Mutagenicity in Salmonella typhimurium TA100 by AMES test; assay type: toxicity; conditions: salmonella enterica subsp. enterica serovar typhimurium
[20] = system: Rattus norvegicus; assay: Neuromuscular block activity in propofol-induced anesthetized iv dosed Sprague-Dawley rat model assessed as effective dose; assay type: functional
[21] = system: Rattus norvegicus; assay: Neuromuscular block activity in propofol-induced anesthetized Sprague-Dawley rat model assessed as inhibition of twitch by measuring twitch intensity of quadriceps muscle at 10 mg/kg, iv administered as bolus dose by TOF watch monitor analysis relative to control; assay type: functional
[22] = system: Rattus norvegicus; assay: Neuromuscular block activity in propofol-induced anesthetized Sprague-Dawley rat model assessed as time duration of 0 to 25 percent recovery indices at 3 mg/kg, iv; assay type: functional
[23] = Toxicity in Sprague-Dawley rat assessed as kidney damage at 3 mg/kg, iv measured after 5 hrs by H and E staining based analysis; assay type: organism-based; conditions: in vivo
[24] = system: Rattus norvegicus; assay: Neuromuscular block activity in propofol-induced anesthetized Sprague-Dawley rat model assessed as inhibition of twitch by measuring twitch intensity of quadriceps muscle at 3 mg/kg, iv administered as bolus dose by TOF watch monitor analysis relative to control; assay type: functional
[25] = Toxicity in iv dosed ICR mouse assessed as maximum tolerated dose; assay type: organism-based; conditions: in vivo
[26] = system: Rattus norvegicus; assay: Neuromuscular block activity in propofol-induced anesthetized Sprague-Dawley rat model assessed as onset time required for twitch reduction at 0.032 mg/kg, iv; assay type: functional
[27] = system: Rattus norvegicus; assay: Neuromuscular block activity in propofol-induced anesthetized Sprague-Dawley rat model assessed as time duration of 0 to 25 percent recovery indices at 0.2 mg/kg, iv; assay type: functional
[28] = system: Rattus norvegicus; assay: Neuromuscular block activity in propofol-induced anesthetized Sprague-Dawley rat model assessed as onset time required for twitch reduction at 10 mg/kg, iv; assay type: functional
[29] = system: H9c2; assay: Cytotoxicity against rat H9c2 cells assessed as cell viability at 150 microg/ml measured for 24 hrs by SRB assay; assay type: toxicity, cell-based; conditions: h9c2, 24 h, dose 150 µg/ml
[30] = system: Rattus norvegicus; assay: Neuromuscular block activity in propofol-induced anesthetized Sprague-Dawley rat model assessed as onset time required for twitch reduction at 0.04 mg/kg, iv; assay type: functional
[31] = system: Rattus norvegicus; assay: Neuromuscular block activity in propofol-induced anesthetized Sprague-Dawley rat model assessed as onset time required for twitch reduction at 0.2 mg/kg, iv; assay type: functional
[32] = system: Rattus norvegicus; assay: Neuromuscular block activity in propofol-induced anesthetized Sprague-Dawley rat model assessed as time duration of 0 to 25 percent recovery indices at 1.5 mg/kg, iv; assay type: functional
[33] = system: Rattus norvegicus; assay: Neuromuscular block activity in propofol-induced anesthetized Sprague-Dawley rat model assessed as onset time required for twitch reduction at 3 mg/kg, iv; assay type: functional
[34] = Hemolytic activity in human RBC assessed as hemolysis rate at 2048 microg/ml relative to control; assay type: toxicity, cell-based, Erythrocyte; conditions: red blood cells, at 2048 µg/mL, read-out: Activity
[35] = system: Rattus norvegicus; assay: Neuromuscular block activity in propofol-induced anesthetized Sprague-Dawley rat model assessed as inhibition of twitch by measuring twitch intensity of quadriceps muscle at 0.2 mg/kg, iv administered as bolus dose by TOF watch monitor analysis relative to control; assay type: functional
[36] = target: Voltage-gated inwardly rectifying potassium channel KCNH2 (Homo sapiens, UniProt Q12809); assay: Inhibition of hERG by Qpatch assay; assay type: toxicity
Voltage-gated inwardly rectifying potassium channel KCNH2, sequence (Q12809 whole entry): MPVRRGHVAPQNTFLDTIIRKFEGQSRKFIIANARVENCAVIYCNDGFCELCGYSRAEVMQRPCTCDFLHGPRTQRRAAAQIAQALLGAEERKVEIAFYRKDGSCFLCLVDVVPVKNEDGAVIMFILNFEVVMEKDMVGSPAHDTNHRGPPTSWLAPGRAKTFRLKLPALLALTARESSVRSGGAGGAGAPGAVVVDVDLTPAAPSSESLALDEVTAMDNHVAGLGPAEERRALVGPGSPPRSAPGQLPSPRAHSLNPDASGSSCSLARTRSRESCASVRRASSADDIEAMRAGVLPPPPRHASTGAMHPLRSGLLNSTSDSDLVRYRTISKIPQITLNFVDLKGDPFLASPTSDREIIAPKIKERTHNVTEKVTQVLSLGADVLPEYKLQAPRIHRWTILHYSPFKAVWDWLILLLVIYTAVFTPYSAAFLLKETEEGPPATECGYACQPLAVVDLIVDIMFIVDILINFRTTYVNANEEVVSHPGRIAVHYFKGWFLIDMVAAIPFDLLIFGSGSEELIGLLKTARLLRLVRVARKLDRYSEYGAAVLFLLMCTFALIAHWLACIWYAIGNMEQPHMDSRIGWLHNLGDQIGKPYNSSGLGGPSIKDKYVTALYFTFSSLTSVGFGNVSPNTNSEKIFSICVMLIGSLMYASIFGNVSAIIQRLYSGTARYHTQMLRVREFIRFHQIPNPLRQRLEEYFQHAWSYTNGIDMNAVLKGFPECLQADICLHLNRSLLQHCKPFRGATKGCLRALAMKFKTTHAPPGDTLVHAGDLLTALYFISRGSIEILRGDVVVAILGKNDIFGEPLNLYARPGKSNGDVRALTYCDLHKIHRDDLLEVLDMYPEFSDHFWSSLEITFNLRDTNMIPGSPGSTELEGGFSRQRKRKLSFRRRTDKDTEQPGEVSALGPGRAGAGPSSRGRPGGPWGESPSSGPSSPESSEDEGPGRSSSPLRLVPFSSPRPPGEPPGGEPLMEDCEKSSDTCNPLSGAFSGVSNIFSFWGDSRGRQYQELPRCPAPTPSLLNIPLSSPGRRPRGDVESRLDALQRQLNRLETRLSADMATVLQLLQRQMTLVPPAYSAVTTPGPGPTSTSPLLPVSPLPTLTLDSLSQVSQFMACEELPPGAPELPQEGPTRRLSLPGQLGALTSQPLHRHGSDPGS

[37] = system: Rattus norvegicus; assay: Neuromuscular block activity in propofol-induced anesthetized Sprague-Dawley rat model assessed as onset time required for twitch reduction at 1.5 mg/kg, iv; assay type: functional
[38] = system: Rattus norvegicus; assay: Neuromuscular block activity in propofol-induced anesthetized Sprague-Dawley rat model assessed as recovery time at 0.032 mg/kg, iv; assay type: functional
[39] = Toxicity in Sprague-Dawley rat assessed as heart damage at 3 mg/kg, iv measured after 5 hrs by H and E staining based analysis; assay type: organism-based; conditions: in vivo

## C[C@]12N3Cc4c(c(OCCCC(=O)[O-])c5ccccc5c4OCCCC(=O)[O-])CN1C(=O)N1CN4C(=O)N5CN6C(=O)N7CN8C(=O)N9Cc%10c(c(OCCCC(=O)[O-])c%11ccccc%11c%10OCCCC(=O)[O-])CN%10C(=O)N(CN%11C(=O)N(CN%12C(=O)N(CN(C3=O)[C@]12C)[C@@H]4[C@H]%125)[C@@H]6[C@H]%117)[C@]8(C)[C@@]9%10C.[Na+].[Na+].[Na+].[Na+]
[1]
  Time: 12 s
[2]
  Time: 19 s
[3]
  Time: 54 s
[4]
  Time: 30 s
[5]
  Activity: Non-toxic

## Cc1n2cc[n+]1Cc1ccc(cc1)Oc1ccc(cc1)C[n+]1ccn(c1C)CCCn1cc[n+](c1C)Cc1ccc(cc1)Oc1ccc(cc1)C[n+]1ccn(c1C)CCC2.[Cl-].[Cl-].[Cl-].[Cl-]
[6]
  inhibition in vivo at 0.032 mg/kg: 90%
[7]
  Time: >300 min
[8]
  Activity: Non-toxic
[9]
  hemolysis at 2048 microg/ml: < 5%
[10]
  Activity: Non-toxic
[11]
  Activity: Non-toxic
[12]
  solubility: ≥ 50 mM
[13]
  Activity: Non-toxic
[14]
  inhibition in vivo at 1.5 mg/kg: 100%
[15]
  Time: 102 min
[16]
  Time: 35 min
[17]
  Activity: Non-toxic
[18]
  inhibition in vivo at 0.04 mg/kg: 90%
[19]
  Activity: Non-toxic
[20]
  ED50: 0.016 mg/kg
[21]
  inhibition in vivo at 10 mg/kg: 100%
[22]
  Time: >300 min
[23]
  Activity: Non-toxic
[24]
  inhibition in vivo at 3 mg/kg: 100%
[25]
  MTD: 550 mg/kg
[26]
  Time: 293 s
[27]
  Time: 217 min
[28]
  Time: 9 s
[29]
  Activity: Non-toxic
[30]
  Time: 90 s
[31]
  Time: 20.5 s
[32]
  Time: >300 min
[33]
  Time: 9 s
[34]
  hemolysis at 2048 microg/ml: < 5%
[35]
  inhibition in vivo at 0.2 mg/kg: 100%
[36]
  IC50: > 40 µM
[37]
  Time: 13 s
[38]
  Time: 7.6 min
[39]
  Activity: Non-toxic
